# In patent publication US12473295B2, “Substituted straight chain spiro derivatives” (Janssen Pharmaceutica NV, priority 2019, dated 2025):
# Structures can show the parent of a compound that is named as a salt. Where two headings read alike, the source gives them in different places.
# Experiments:
# MOLM14 cells = assay: Proliferation assay (spheroid growth, 8 days), MOLM14; assay type: cell-based, human; details: MOLM14, 8 days, read-out: spheroid assay_OneTime MOLM14 IC50;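 further: spheroid size read as confluence by live-cell imaging, compounds added at a range of concentrations with 0.3% DMSO, DMSO-treated wells = 0%, highest reference dose = low control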
# MEIS1 mRNA = MEIS1 mRNA expression assay (Quantigene Singleplex) in MOLM14 cells; assay type: cell-based, human; details: 48 hours incubation;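 further: MEIS1 transcript levels read by probe hybridization and normalized to RPL28 mRNA, with IC50 fitted to fold changes across a rising compound concentration series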
# OCI-AML3 cells = assay: Proliferation assay (spheroid growth, 8 days), OCI-AML3; assay type: cell-based, human; details: OCI-AML3, 8 days
# Procedure, shortened: (§1)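 Cells were seeded at 200 (MOLM14, OCI-AML3) or 300 (KO-52) per well in ultra-low attachment round-bottom plates with compounds at several concentrations, 0.3% DMSO, and grown 8 days at 37° C. Spheroid confluence was imaged on day 8; IC50 came from a variable-slope fit normalized to DMSO and high-dose reference compound.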
# KO-52 cells = assay: Proliferation assay (spheroid growth, 8 days), KO-52 control cell line; assay type: cell-based, human; details: read-out: spheroid assay_OneTime KO-52 IC50
# Procedure, shortened: as §1
# [1] = molecular target: menin/MLL (terbium chelate-labeled menin, FITC-MBM1 peptide) (Homo sapiens (Human), UniProt O00255); assay: Menin/MLL homogenous time-resolved fluorescence (HTRF) assay; assay type: binding;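 further: IC50 from percent inhibition of HTRF signal, normalized between wells without competitor and wells with a saturating competitor that displaces FITC-MBM1 from His-tagged menin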
# Sequence of menin/MLL (terbium chelate-labeled menin, FITC-MBM1 peptide) (O00255 other isoform, or with tags, fused parts or gaps): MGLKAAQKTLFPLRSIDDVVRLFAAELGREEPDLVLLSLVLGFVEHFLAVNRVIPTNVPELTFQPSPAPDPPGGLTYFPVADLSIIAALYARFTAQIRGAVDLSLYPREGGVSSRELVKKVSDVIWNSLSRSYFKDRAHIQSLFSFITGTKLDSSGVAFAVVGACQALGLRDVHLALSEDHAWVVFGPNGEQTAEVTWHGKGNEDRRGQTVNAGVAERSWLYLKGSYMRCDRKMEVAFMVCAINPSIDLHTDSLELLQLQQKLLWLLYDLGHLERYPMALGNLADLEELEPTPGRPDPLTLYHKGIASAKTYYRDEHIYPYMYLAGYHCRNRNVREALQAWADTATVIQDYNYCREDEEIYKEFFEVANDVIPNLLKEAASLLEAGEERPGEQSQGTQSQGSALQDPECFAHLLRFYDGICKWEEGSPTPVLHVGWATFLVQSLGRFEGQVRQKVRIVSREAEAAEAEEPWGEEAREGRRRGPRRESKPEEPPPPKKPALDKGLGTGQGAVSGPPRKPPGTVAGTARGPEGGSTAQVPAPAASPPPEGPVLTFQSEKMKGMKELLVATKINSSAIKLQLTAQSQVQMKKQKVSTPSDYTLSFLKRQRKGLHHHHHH
# [2] = HTRF-30 min incubation IC50, 30 min incubation
molecule,measurement,setting,value
"CC(C)[C@@H](C[C@@H](O)CN(C)C)N1CC2(CCN(c3ncnnc3Oc3ccc(F)cc3C(=O)N(C(C)C)C(C)C)C2)C1 (single isomer, unassigned) [Compound 365, 2-((5-(2-((3*R,5*R)-6-(dimethylamino)-5-hydroxy-2-methylhexan-3-yl)-2,6-diazaspiro[3.4]octan-6-yl)-1,2,4-triazin-6-yl)oxy)-5-fluoro-N,N-diisopropylbenzamide fumarate]",IC50,"MOLM14 cells; Homo sapiens, MOLM-14, […]",11 nM
same,IC50,"MEIS1 mRNA; Homo sapiens, MOLM-14, 48 h",10 nM
same,IC50,"OCI-AML3 cells; Homo sapiens, OCI-AML-3, […]",37 nM
same,IC50,"KO-52 cells; Homo sapiens, […]",> 15000 nM
same,IC50,[1]; [2],0.097 nM
"CCN(C(=O)c1cc(F)ccc1Oc1nncnc1N1CCC2(C1)CN([C@H](CCCCN)C(C)C)C2)C(C)C (single isomer, unassigned) [Compound 209, (*R)-2-((5-(2-(7-amino-2-methylheptan-3-yl)-2,6-diazaspiro[3.4]octan-6-yl)-1,2,4-triazin-6-yl)oxy)-N-ethyl-5-fluoro-N-isopropylbenzamide formate]",IC50,"MOLM14 cells; Homo sapiens, MOLM-14, […]",270 nM
same,IC50,"MEIS1 mRNA; Homo sapiens, MOLM-14, 48 h",130 nM
same,IC50,"OCI-AML3 cells; Homo sapiens, OCI-AML-3, […]",240 nM
same,IC50,"KO-52 cells; Homo sapiens, […]",> 15000 nM
same,IC50,[1]; [2],0.27 nM
"CC(C)[C@@H](C[C@H](O)CN(C)C)N1CC2(CCN(c3ncnnc3Oc3ccc(F)cc3C(=O)N(C(C)C)C(C)C)C2)C1 (single isomer, unassigned) [Compound 366]",IC50,"MOLM14 cells; Homo sapiens, MOLM-14, […]",17 nM
same,IC50,"MEIS1 mRNA; Homo sapiens, MOLM-14, 48 h",20 nM
same,IC50,"OCI-AML3 cells; Homo sapiens, OCI-AML-3, […]",76 nM
same,IC50,"KO-52 cells; Homo sapiens, […]",> 15000 nM
same,IC50,[1]; [2],0.088 nM
"N-ethyl-2-((5-(2-((3*R,5*R)-6-(ethyl(methyl)amino)-5-methoxy-2-methylhexan-3-yl)-2, diazaspiro[3.4]octan-6-yl)-1,2,4-triazin-6-yl)oxy)-5-fluoro-N-isopropylbenzamide [Compound 311]",IC50,MOLM14 cells,510 nM
same,IC50,MEIS1 mRNA,~630 nM
same,IC50,OCI-AML3 cells,2880 nM
same,IC50,KO-52 cells,> 15000 nM
same,IC50,"[1]; read-out: HTRF-30 min incubation IC50, 30 min incubation",1.01 nM
"CCN(C)C[C@@H](O)C[C@H](C(C)C)N1CC2(CCN(c3ncnnc3Oc3ccc(F)cc3C(=O)N(CC)C(C)C)C2)C1 (single isomer, unassigned) [Compound 342, N-ethyl-2-((5-(2-((3*S,5S)-6-(ethyl(methyl)amino)-5-hydroxy-2-methylhexan-3-yl)-2,6-diazaspiro[3.4]octan-6-yl)-1,2,4-triazin-6-yl)oxy)-5-fluoro-N-isopropylbenzamide fumarate]",IC50,"MOLM14 cells; Homo sapiens, MOLM-14, […]",10 nM
same,IC50,"MEIS1 mRNA; Homo sapiens, MOLM-14, 48 h",78 nM
same,IC50,"OCI-AML3 cells; Homo sapiens, OCI-AML-3, […]",25 nM
same,IC50,"KO-52 cells; Homo sapiens, […]",23 nM
same,IC50,[1]; [2],0.17 nM
"CCN(C(=O)c1cc(F)ccc1Oc1nncnc1N1CCC2(C1)CN([C@H](CCCN(C)C[C@@H](COC)OC)C(C)C)C2)C(C)C (single isomer, unassigned) [Compound 177, 2-((5-(2-((R)-6-(((*S)-2,3-dimethoxypropyl)(methyl)amino)-2-methylhexan-3-yl-2,6-diazaspiro[3.4]octan-6-yl)-1,2,4-triazin-6-yl)oxy)-N-ethyl-5-fluoro-N-isopropylbenzamide fumarate]",IC50,"MOLM14 cells; Homo sapiens, MOLM-14, […]",24 nM
same,IC50,"MEIS1 mRNA; Homo sapiens, MOLM-14, 48 h",7.3 nM
same,IC50,"OCI-AML3 cells; Homo sapiens, OCI-AML-3, […]",64 nM
same,IC50,"KO-52 cells; Homo sapiens, […]",> 15000 nM
same,IC50,[1]; [2],0.062 nM
"CCN(C(=O)c1cc(F)ccc1Oc1nncnc1N1CCC2(C1)CN([C@H](CCCN(C)CCO)C(C)C)C2)C(C)C [Compound 259, (R)-N-ethyl-5-fluoro-2-((5-(2-(6-((2-hydroxyethyl)(methyl)amino)-2-methylhexan-3-yl)-2,6-diazaspiro[3.4]octan-6-yl)-1,2,4-triazin-6-yl)oxy)-N-isopropylbenzamide fumarate]",IC50,"MOLM14 cells; Homo sapiens, MOLM-14, […]",46 nM
same,IC50,"MEIS1 mRNA; Homo sapiens, MOLM-14, 48 h",65 nM
same,IC50,"OCI-AML3 cells; Homo sapiens, OCI-AML-3, […]",250 nM
same,IC50,"KO-52 cells; Homo sapiens, […]",> 15000 nM
same,IC50,[1]; [2],0.16 nM
"CCN(C(=O)c1cc(F)ccc1Oc1nncnc1N1CCC2(C1)CN([C@H](CCCN(C)C(C)CC(=O)N(C)C)C(C)C)C2)C(C)C (stereo partly shown) [Compound 179, fumarate]",IC50,"MOLM14 cells; Homo sapiens, MOLM-14, […]",33 nM
same,IC50,"MEIS1 mRNA; Homo sapiens, MOLM-14, 48 h",27 nM
same,IC50,"OCI-AML3 cells; Homo sapiens, OCI-AML-3, […]",59 nM
same,IC50,"KO-52 cells; Homo sapiens, […]",> 15000 nM
same,IC50,[1]; [2],0.13 nM
"CCN(CC)C[C@H](O)C[C@H](C(C)C)N1CC2(CCN(c3ncnnc3Oc3ccc(F)cc3C(=O)N(CC)C(C)C)C2)C1 (single isomer, unassigned) [Compound 334, 2-((5-(2-((3*R,5*R)-6-(diethylamino)-5-hydroxy-2-methylhexan-3-yl)-2,6-diazaspiro[3.4]octan-6-yl)-1,2,4-triazin-6-yl)oxy)-N-ethyl-5-fluoro-N-isopropylbenzamide fumarate]",IC50,"MOLM14 cells; Homo sapiens, MOLM-14, […]",12 nM
same,IC50,"MEIS1 mRNA; Homo sapiens, MOLM-14, 48 h",11 nM
same,IC50,"OCI-AML3 cells; Homo sapiens, OCI-AML-3, […]",130 nM
same,IC50,"KO-52 cells; Homo sapiens, […]",> 15000 nM
same,IC50,[1]; [2],0.079 nM
"CCN(C(=O)c1cc(F)ccc1Oc1nncnc1N1CCC2(C1)CN(C(CCCNCC(C)(C)OC)C(C)C)C2)C(C)C (stereo not shown) [Compound 69, N-ethyl-5-fluoro-N-isopropyl-2-((5-(2-(6-((2-methoxy-2-methylpropyl)amino)-2-methylhexan-3-yl)-2,6-diazaspiro[3.4]octan-6-yl)-1,2,4-triazin-6-yl)oxy)benzamide]",IC50,"MOLM14 cells; Homo sapiens, MOLM-14, […]",20 nM
same,IC50,"MEIS1 mRNA; Homo sapiens, MOLM-14, 48 h",16 nM
same,IC50,"OCI-AML3 cells; Homo sapiens, OCI-AML-3, […]",87 nM
same,IC50,"KO-52 cells; Homo sapiens, […]",7180 nM
same,IC50,[1]; [2],0.099 nM
"CCN(C(=O)c1cc(F)ccc1Oc1nncnc1N1CCC2(C1)CN([C@H](CCCN(C)CC(C)(C)OC)C(C)C)C2)C(C)C [Compound 137, (R)-N-ethyl-5-fluoro-N-isopropyl-2-((5-(2-(6-((2-methoxy-2-methylpropyl)(methyl)amino)-2-methylhexan-3-yl)-2,6-diazaspiro[3.4]octan-6-yl)-1,2,4-triazin-6-yl)oxy)benzamide fumarate]",IC50,"MOLM14 cells; Homo sapiens, MOLM-14, […]",45 nM
same,IC50,"MEIS1 mRNA; Homo sapiens, MOLM-14, 48 h",25 nM
same,IC50,"OCI-AML3 cells; Homo sapiens, OCI-AML-3, […]",160 nM
same,IC50,"KO-52 cells; Homo sapiens, […]",7290 nM
same,IC50,[1]; [2],0.18 nM
"CCN(C(=O)c1cc(F)ccc1Oc1nncnc1N1CCC2(C1)CN([C@H](CCCNC(COC)COC)C(C)C)C2)C(C)C [Compound 159, (R)-2-((5-(2-(6-((1,3-dimethoxypropan-2-yl)amino)-2-methylhexan-3-yl)-2,6-diazaspiro[3.4]octan-6-yl)-1,2,4-triazin-6-yl)oxy)-N-ethyl-5-fluoro-N-isopropylbenzamide fumarate]",IC50,"MOLM14 cells; Homo sapiens, MOLM-14, […]",10 nM
same,IC50,"MEIS1 mRNA; Homo sapiens, MOLM-14, 48 h",~17 nM
same,IC50,"OCI-AML3 cells; Homo sapiens, OCI-AML-3, […]",12 nM
same,IC50,"KO-52 cells; Homo sapiens, […]",6300 nM
same,IC50,[1]; [2],0.1 nM
"CCN(C(=O)c1cc(F)ccc1Oc1nncnc1N1CCC2(C1)CN([C@H](CCC(C)N(C)CCOC)C(C)C)C2)C(C)C (stereo partly drawn) [Compound 300, N-ethyl-5-fluoro-N-isopropyl-2-((5-(2-((3R)-6-((2-methoxyethyl)(methyl)amino)-2-methylheptan-3-yl)-2,6-diazaspiro[3.4]octan-6-yl)-1,2,4-triazin-6-yl)oxy)benzamide fumarate]",IC50,"MOLM14 cells; Homo sapiens, MOLM-14, […]",36 nM
same,IC50,"MEIS1 mRNA; Homo sapiens, MOLM-14, 48 h",29 nM
same,IC50,"OCI-AML3 cells; Homo sapiens, OCI-AML-3, […]",71 nM
same,IC50,"KO-52 cells; Homo sapiens, […]",> 15000 nM
same,IC50,[1]; [2],0.066 nM
"CCCN(C)C[C@H](O)C[C@H](C(C)C)N1CC2(CCN(c3ncnnc3Oc3ccc(F)cc3C(=O)N(CC)C(C)C)C2)C1 (single isomer, unassigned) [Compound 386, N-ethyl-5-fluoro-2-((5-(2-((3*R,5*R)-5-hydroxy-2-methyl-6-(methyl(propyl)amino)hexan-3-yl)-2,6-diazaspiro[3.4]octan-6-yl)-1,2,4-triazin-6-yl)oxy)-N-isopropylbenzamide fumarate]",IC50,"MOLM14 cells; Homo sapiens, MOLM-14, […]",160 nM
same,IC50,"MEIS1 mRNA; Homo sapiens, MOLM-14, 48 h",61 nM
same,IC50,"OCI-AML3 cells; Homo sapiens, OCI-AML-3, […]",810 nM
same,IC50,"KO-52 cells; Homo sapiens, […]",9600 nM
same,IC50,[1]; [2],~0.59 nM
